Some test systems named below: M14 melanoma; MALME-3M melanoma; MDA-MB-435; NCI-H23 lung; NCI-H522 lung; PC-3 prostate; SN12C renal; SR leukemia; T-47D breast; U251 CNS.
Common to all, as to experiment: DTP human tumour cell line panel, 48 h

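Test compounds were applied to cells in 96-well plates for 48 hours at 5 doses. At the GI50, growth is halved. Definition used: TGI = concentration required for complete inhibition of growth.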 A value given as a limit tells only on which side of the number the result lay.

Turning to `COC(=O)Cc1cc(O)c(C/C=C(\C)CC/C=C(\C)C(O)C(=O)C=C(C)C)cc1O` (stereo not drawn), the TGI in the assay with M14 melanoma turned out to be 64.8 µM; with MALME-3M melanoma it was 48.6 µM; in the assay on MDA-MB-435, 45.4 µM; in the assay with NCI-H23 lung, 93.3 µM; with NCI-H522 lung it was 39.8 µM; in the assay with PC-3 prostate it was 87.7 µM. The TGI came to 58 µM with SN12C renal, 41.6 µM with SR leukemia, 43.2 µM in the assay with T-47D breast and 35.7 µM with U251 CNS.

Take `Cc1cccc(-c2nc3ccc([N+](=O)[O-])cc3c(=O)o2)c1`: the TGI in the assay on MALME-3M melanoma, in the assay with MDA-MB-435, in the assay on NCI-H23 lung, with NCI-H522 lung, with PC-3 prostate and in the assay on SN12C renal was more than 100 µM throughout. In addition, the TGI with SR leukemia, with T-47D breast and in the assay with U251 CNS was more than 100 µM throughout.

On to `CCN(CC)c1c(N(CC)CC)c(=O)c1=O`, for which the TGI in the assay with M14 melanoma was 36.9 µM; in the assay on MALME-3M melanoma, 13.2 µM; in the assay on MDA-MB-435, 60.9 µM; in the assay on NCI-H23 lung it was 26.7 µM; with NCI-H522 lung, 4.86 µM; in the assay on PC-3 prostate, 46.4 µM. Moreover, the TGI with SN12C renal was 24 µM; in the assay with SR leukemia, more than 100 µM; in the assay on T-47D breast, 10.4 µM; in the assay with U251 CNS it was 55.6 µM.

Turning to `C[C@@H]1C[C@H]2[C@@H]3CCC4=CC(=O)C=C[C@]4(C)[C@@]3(Cl)[C@@H](Cl)C[C@]2(C)[C@@]1(O)C(=O)COP(=O)(O)O`, the total growth inhibition concentration (TGI) in the assay on M14 melanoma, with MALME-3M melanoma, in the assay with MDA-MB-435, in the assay on NCI-H23 lung, in the assay with NCI-H522 lung and with PC-3 prostate was more than 100 µM each time. The TGI was 33.1 µM in the assay with SN12C renal, more than 100 µM with SR leukemia, more than 100 µM in the assay on T-47D breast and more than 100 µM with U251 CNS.

`C[N+](C)([O-])CCC=C1c2ccccc2CCc2ccccc21`: the TGI in the assay on M14 melanoma is more than 100 µM; in the assay on MALME-3M melanoma it was 45.4 µM; in the assay on MDA-MB-435 it was 38.1 µM; in the assay with NCI-H23 lung it was more than 100 µM; in the assay on NCI-H522 lung, 34.4 µM; in the assay on PC-3 prostate, 86.3 µM. Also, the TGI worked out at 62.9 µM in the assay with SN12C renal, 39.3 µM in the assay with SR leukemia, 77.7 µM in the assay with T-47D breast and 33.8 µM in the assay with U251 CNS.

Take `CC(C)(C)c1cc(C(P(=O)(c2ccccc2)c2ccccc2)P(=O)(c2ccccc2)c2ccccc2)cc(C(C)(C)C)c1O`: the TGI with M14 melanoma is 3.84 µM; with MALME-3M melanoma, 6.38 µM; in the assay on MDA-MB-435, 4.39 µM; with NCI-H23 lung it was 7.3 µM; in the assay on NCI-H522 lung it was 5.26 µM; in the assay with PC-3 prostate, 7.67 µM. Besides, the TGI in the assay with SN12C renal is more than 9.06 µM; in the assay with SR leukemia, more than 8.37 µM; with T-47D breast, more than 10 µM; in the assay on U251 CNS, 6.68 µM.

Turning to `CC(=O)c1c2c(cc3c1CC1(Cc4ccccc4C1=O)C3)CCC2` (stereo not drawn), the TGI with M14 melanoma was 74.5 µM; in the assay with MALME-3M melanoma it was 51.5 µM; in the assay with MDA-MB-435, 64 µM; in the assay on NCI-H23 lung, more than 100 µM; in the assay on NCI-H522 lung, more than 100 µM; in the assay with PC-3 prostate it was more than 100 µM. For the same compound, the TGI in the assay on SN12C renal is more than 100 µM; with SR leukemia it was 47.9 µM; with T-47D breast, 49.3 µM; in the assay on U251 CNS, more than 100 µM.

Take `CCc1nc(N)nc(N)c1-c1ccc(Cl)c(Cl)c1`: the TGI in the assay on M14 melanoma, in the assay with MALME-3M melanoma, in the assay on MDA-MB-435, in the assay with NCI-H23 lung, in the assay on NCI-H522 lung and with PC-3 prostate was more than 100 µM throughout. The TGI in the assay on SN12C renal, with SR leukemia, in the assay with T-47D breast and with U251 CNS was more than 100 µM each time.

Turning to `CNn1c(-c2ccccc2)n[nH]c1=O`, the TGI with M14 melanoma, in the assay with MALME-3M melanoma, in the assay on MDA-MB-435, in the assay with NCI-H23 lung, with NCI-H522 lung and with PC-3 prostate was more than 100 µM each time. For the same compound, the TGI in the assay on SN12C renal, with SR leukemia, in the assay on T-47D breast and in the assay with U251 CNS was more than 100 µM throughout.

Take `Nc1nc(N)c2[nH]c(CNc3ccc(C(=O)O)cc3)nc2n1`: the total growth inhibition concentration (TGI) in the assay with M14 melanoma, in the assay on MALME-3M melanoma, with MDA-MB-435, with NCI-H23 lung, with NCI-H522 lung and in the assay on PC-3 prostate was more than 100 µM each time. The TGI in the assay with SN12C renal, in the assay on SR leukemia, with T-47D breast and in the assay on U251 CNS was more than 100 µM each time.

On to `COc1ccc(C2CC(c3cccc(Nc4ccncc4)c3)=NN2c2cc(Cl)cc(Cl)c2)cc1` (stereo not drawn), for which the GI50 is 1.75 µM with MDA-MB-435; 1.79 µM in the assay with NCI-H23 lung; 1.54 µM with PC-3 prostate; 1.62 µM in the assay with SN12C renal; 1.53 µM in the assay with SR leukemia; 1.96 µM in the assay with T-47D breast. Further, the TGI in the assay with MDA-MB-435 stood at 3.32 µM; in the assay on NCI-H23 lung, 3.44 µM; in the assay with PC-3 prostate it was 3.16 µM; with SN12C renal it was 3.16 µM; with SR leukemia it was 4.34 µM; in the assay on T-47D breast, 4.43 µM.

Regarding `Cc1ccc(/C=N/n2c(=O)[nH]c3ccccc3c2=O)cc1`, the TGI in the assay on M14 melanoma, with MDA-MB-435, in the assay with NCI-H23 lung, with PC-3 prostate, in the assay on SN12C renal and with SR leukemia was more than 100 µM in each case. For the same compound, the TGI in the assay on T-47D breast and with U251 CNS was more than 100 µM in each case.

In the case of `CC(=O)OCCn1cnc2nc(Nc3ccccc3)nc(Cl)c21`, the TGI in the assay with MALME-3M melanoma, with MDA-MB-435, in the assay with NCI-H23 lung, with NCI-H522 lung, in the assay with PC-3 prostate and with SN12C renal was more than 100 µM each time. Also, the TGI with SR leukemia, in the assay on T-47D breast and with U251 CNS was more than 100 µM in each case.

By TGI is commonly meant the concentration at which net growth stops. Low readings indicate greater sensitivity of the cells, high ones lower sensitivity of the cells. A word on the GI50: it is the concentration that inhibits growth by half.

For the origin of these results see PubChem BioAssay (NCI).
